# Laboratory results from publication PMC12058161, “The plant matrix of Artemisia annua L. for the treatment of malaria: Pharmacodynamic and pharmacokinetic studies” (PLOS One, 2025).
# Where “and” joins values, the source holds several entries; their conditions need not be identical. Identical values can stand only once.
# Legend:
# [1] = test system: Caco-2 cells; experiment: Cytotoxicity in Caco-2 cells, CCK-8 assay; assay type: cell-based, human; conditions: for Cell survival rate%: mean; for cck-8 mean (survival fraction): mean of 6
# Protocol: Caco-2 cells were cultured in 96-well plates for 48 h at a seeding density of 5.0 × 10^3 cells/well before the addition of drugs. […] The final concentration of DMSO was 0.05% (v/v). Experiments were initiated by replacing the culture medium in each well with 100 μL of sample solutions at 37°C in the CO2 incubator. After 48 h of incubation, the medium was removed and 10 μL of CCK-8 reagent in the serum-free medium was added to each well. The plates were then incubated at 37°C for another 2 h. At the end of the incubation period, the plates were quantified by reading the absorbance at 450 nm on a micro-plate multi-detection instrument, SpectraMax iD3 with SoftMax® Pro (Molecular Devices Corporation Sunnyvale, CA, USA). The percentage of cell viability was calculated based on the absorbance measured relative to the absorbance of cells exposed to the negative control.
# [2] = target: T1, P-glycoprotein (P-gp) (Homo sapiens, UniProt P08183); experiment: Rhodamine 123 (P-gp substrate) transport across drug-treated Caco-2 cell monolayers; assay type: cell-based; conditions: co-incubated with R123, 10 μM, Caco-2 monolayer, Fig 6
# T1 construct: The transport of R123 in normal Caco-2 cell monolayers or drug-treated Caco-2 cell monolayers was further studied; host or cells: Caco-2
# T1 sequence (P08183 whole entry): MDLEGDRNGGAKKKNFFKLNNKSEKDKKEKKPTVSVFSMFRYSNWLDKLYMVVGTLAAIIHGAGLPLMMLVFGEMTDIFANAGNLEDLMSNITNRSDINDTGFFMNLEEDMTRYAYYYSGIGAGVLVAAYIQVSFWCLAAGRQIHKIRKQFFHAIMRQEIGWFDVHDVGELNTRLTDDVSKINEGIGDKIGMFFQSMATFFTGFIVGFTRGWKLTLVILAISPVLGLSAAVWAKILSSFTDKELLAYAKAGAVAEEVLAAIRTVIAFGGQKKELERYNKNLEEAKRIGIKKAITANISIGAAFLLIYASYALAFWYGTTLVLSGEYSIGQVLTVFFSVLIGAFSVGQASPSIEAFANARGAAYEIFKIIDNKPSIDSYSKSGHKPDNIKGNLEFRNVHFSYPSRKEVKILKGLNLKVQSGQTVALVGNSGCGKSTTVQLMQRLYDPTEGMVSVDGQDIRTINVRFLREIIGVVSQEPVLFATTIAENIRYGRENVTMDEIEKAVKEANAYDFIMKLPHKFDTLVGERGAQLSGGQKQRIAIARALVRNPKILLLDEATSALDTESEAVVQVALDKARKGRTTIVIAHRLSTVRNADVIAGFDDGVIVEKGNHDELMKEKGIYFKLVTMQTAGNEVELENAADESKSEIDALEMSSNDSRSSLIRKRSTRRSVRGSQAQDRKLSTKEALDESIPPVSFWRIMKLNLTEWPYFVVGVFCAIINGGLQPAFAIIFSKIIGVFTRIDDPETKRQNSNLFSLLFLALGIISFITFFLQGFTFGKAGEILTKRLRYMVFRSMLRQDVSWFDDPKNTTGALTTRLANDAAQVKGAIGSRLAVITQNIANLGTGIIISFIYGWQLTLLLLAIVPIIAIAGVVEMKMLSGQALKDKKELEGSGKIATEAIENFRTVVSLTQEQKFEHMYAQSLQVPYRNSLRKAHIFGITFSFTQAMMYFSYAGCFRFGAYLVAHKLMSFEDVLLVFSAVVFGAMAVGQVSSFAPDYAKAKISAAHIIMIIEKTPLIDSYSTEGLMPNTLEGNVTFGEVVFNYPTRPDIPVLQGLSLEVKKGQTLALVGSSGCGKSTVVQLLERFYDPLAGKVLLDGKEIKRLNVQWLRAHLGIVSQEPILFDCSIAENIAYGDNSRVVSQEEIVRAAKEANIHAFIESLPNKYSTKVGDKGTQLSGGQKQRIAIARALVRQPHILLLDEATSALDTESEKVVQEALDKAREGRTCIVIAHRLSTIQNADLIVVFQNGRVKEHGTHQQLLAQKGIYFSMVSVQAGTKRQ
# Text: The human epithelial cell line Caco-2 serves as a widely recognized model for the intestinal epithelial barrier, frequently utilized in the assessment of drug absorption and transport mechanisms. In this study, we evaluated drug absorption and distribution in vitro with the help of the Caco-2 cell model. Caco-2 cells were purchased from the Chinese Academy of Medical Sciences (Beijing, China, Resource No. 3111C0001CCC000100). The cells were resuscitated and inserted into culture flasks. Caco-2 cells were passaged with DMEM high glucose medium containing 10% (V/V) FBS, 1% (V/V) non-essential amino acid solution and 100 U/mL penicillin-streptomycin double antibiotic solution, and cultured at 37°C in a 5% CO2 incubator. […] The integrity of the cell monolayer was checked by measuring the transmembrane electrical resistance (TEER) of the monolayer cells with a Millicell-ERS electrode (Millipore Corp., Billerica, MA, USA). Caco-2 cells were used for transport experiments 17–21 days after inoculation. Besides, only monolayers with TEER values above 400 Ω/cm^2 were used in the study.
# The transport of R123 in normal Caco-2 cell monolayers or drug-treated Caco-2 cell monolayers was further studied. […] The transport buffer containing 5 μM of R123 was added on either the AP or the BL side of the inserts, as described above. […] The concentrations of R123 were immediately analyzed by SpectraMax iD3. The excitation wavelength was set at 485 nm, and the emission wavelength at 535 nm. Papp values across the cell monolayers were calculated according to the equation: Papp = dQ/dt × 1/(A × C0), where dQ/dt represents the rate of drug transport. […] The efflux ratio was calculated using the Papp (BL-AP) to Papp (AP-BL) ratio.
# [3] = Stability of the five compounds in SD rat plasma (QC samples, UHPLC-ESI-MS/MS); assay type: in vitro ADME; conditions: for mean measured concentration: rat plasma, mean of 5; for stability, Accuracy (measured versus nominal concentration) / stability, mean ± SD (measured concentration): SD rat plasma, n=5
# Protocol: The method was validated according to the US Food and Drug Administration (FDA) Bioanalytical Method Validation Guidance as follows: [1] specificity was assessed by analyzing blank plasma, blank plasma spiked with standard solutions and rat plasma samples after oral administration. Each calibration curve was plotted using the concentration of the standard solution as the horizontal coordinate and the ratio of analyte to internal standard peak area as the vertical coordinate. The lower limit of quantification (LLOQ) refers to the lowest concentration, which is typically 10 times the signal-to-noise ratio. It has an acceptable accuracy of ± 20% and a precision of less than 20% [3]. Quality Control (QC) samples (low, medium and high concentrations) were prepared for each analyte. Five samples were analyzed at each concentration level and three consecutive batches were determined to calculate the accuracy and precision of the method. Extraction recovery was assessed by the ratio of the average peak area of routinely prepared QC samples (low, medium, and high concentrations) to the post-extraction plasma sample. Likewise, matrix effect was assessed by the ratio of peak areas between post-extraction samples spiked with analytes and mobile phases spiked with the same concentration of analytes.
# [4] = male, Sprague Dawley, rat, in vivo, po, 352 mg/kg
# [5] = in vivo; conditions: male, Sprague Dawley, rat, po, 352 mg/kg
# [6] = Caco-2, concentration 10 μmol/L
# [7] = Caco-2, concentration 20 μmol/L
# [8] = Caco-2, concentration 40 μmol/L
# [9] = Caco-2, concentration 80 μmol/L
# [10] = nominal 160 ng/mL, 3 freeze-thaw cycles
# [11] = nominal 160 ng/mL, 7 days at -80°C
# [12] = nominal 160 ng/mL, Room temperature 24h
# [13] = nominal 1000 ng/mL, 3 freeze-thaw cycles
# [14] = nominal 1000 ng/mL, 7 days at -80°C
# [15] = nominal 1000 ng/mL, Room temperature 24h
# [16] = nominal 5000 ng/mL, 3 freeze-thaw cycles
# [17] = nominal 5000 ng/mL, 7 days at -80°C
# [18] = nominal 5000 ng/mL, Room temperature 24h
compound,measurement,setting,value
"C=C(C(=O)O)[C@@H]1CC[C@@H](C)[C@@H]2CCC(C)=C[C@@H]21 [AA, Artemisinic acid]","Cell survival rate%, single replicate","[1]; Caco-2, 5μmol/L",86.78% and 81.42% and 81.32% and 82.7% and 86.07% and 80.23%
same,"Cell survival rate%, single replicate","[1]; Caco-2, 10μmol/L",83.23% and 82.76% and 85.19% and 84.02% and 81.01% (2×)
same,"Cell survival rate%, single replicate","[1]; Caco-2, 20μmol/L",82.79% and 80.95% and 80.96% and 82.01% and 83.04% and 83.63%
same,"Cell survival rate%, single replicate","[1]; Caco-2, 40μmol/L",79.21% and 80.38% and 82.01% and 81.79% and 85.15% and 82.39%
same,"Cell survival rate%, single replicate","[1]; Caco-2, 80μmol/L",81.2% and 78.64% and 82.71% and 80.82% and 78.89% and 79.03%
same,"cck-8 cell survival as fraction, single replicate","[1]; Caco-2, concentration 5 μmol/L",0.8678 and 0.8142 and 0.8132 and 0.827 and 0.8607 and 0.8023
same,Cell survival rate%,"[1]; Caco-2, concentration 5 μmol/L",83.09%
same,cck-8 mean (survival fraction),"[1]; Caco-2, concentration 5 μmol/L",0.83
same,"cck-8 cell survival as fraction, single replicate",[1]; [6],0.8323 and 0.8276 and 0.8519 and 0.8402 and 0.8101
same,Cell survival rate%,[1]; [6],82.87%
same,cck-8 mean (survival fraction),[1]; [6],0.83
same,"cck-8 cell survival as fraction, single replicate",[1]; [7],0.8279 and 0.8095 and 0.8096 and 0.8201 and 0.8304 and 0.8363
same,Cell survival rate%,[1]; [7],82.23%
same,cck-8 mean (survival fraction),[1]; [7],0.82
same,"cck-8 cell survival as fraction, single replicate",[1]; [8],0.7921 and 0.8038 and 0.8201 and 0.8179 and 0.8515 and 0.8239
same,Cell survival rate%,[1]; [8],81.82%
same,cck-8 mean (survival fraction),[1]; [8],0.82
same,"cck-8 cell survival as fraction, single replicate",[1]; [9],0.812 and 0.7864 and 0.8271 and 0.8082 and 0.7889 and 0.7903
same,Cell survival rate%,[1]; [9],80.22%
same,cck-8 mean (survival fraction),[1]; [9],0.80
same,reduction of R123 transport from the BL side to the AP side,[2],26.82%
same,mean measured concentration,"[3]; AA QC 160ng, 3 freeze-thaw cycles",175.436 ng/mL
same,mean measured concentration,"[3]; AA QC 160ng, 7 days at -80°C",168.832 ng/mL
same,mean measured concentration,"[3]; AA QC 160ng, Room temperature 24h",151.908 ng/mL
same,mean measured concentration,"[3]; AA QC 1000ng, 3 freeze-thaw cycles",947.702 ng/mL
same,mean measured concentration,"[3]; AA QC 1000ng, 7 days at -80°C",919.418 ng/mL
same,mean measured concentration,"[3]; AA QC 1000ng, Room temperature 24h",955.778 ng/mL
same,mean measured concentration,"[3]; AA QC 5000ng, 3 freeze-thaw cycles",4777.45 ng/mL
same,mean measured concentration,"[3]; AA QC 5000ng, 7 days at -80°C",4737.9 ng/mL
same,mean measured concentration,"[3]; AA QC 5000ng, Room temperature 24h",4689.24 ng/mL
same,"stability, Accuracy (measured versus nominal concentration)",[3]; [10],109.65%
same,"stability, mean ± SD (measured concentration)",[3]; [10],175 ± 7.36 ng/mL
same,"stability, Accuracy (measured versus nominal concentration)",[3]; [11],105.52%
same,"stability, mean ± SD (measured concentration)",[3]; [11],169 ± 8.62 ng/mL
same,"stability, Accuracy (measured versus nominal concentration)",[3]; [12],94.94%
same,"stability, mean ± SD (measured concentration)",[3]; [12],152 ± 6.95 ng/mL
same,"stability, Accuracy (measured versus nominal concentration)",[3]; [13],94.77%
same,"stability, mean ± SD (measured concentration)",[3]; [13],948 ± 56.6 ng/mL
same,"stability, Accuracy (measured versus nominal concentration)",[3]; [14],91.94%
same,"stability, mean ± SD (measured concentration)",[3]; [14],919 ± 34.8 ng/mL
same,"stability, Accuracy (measured versus nominal concentration)",[3]; [15],95.58%
same,"stability, mean ± SD (measured concentration)",[3]; [15],956 ± 68.0 ng/mL
same,"stability, Accuracy (measured versus nominal concentration)",[3]; [16],95.55%
same,"stability, mean ± SD (measured concentration)",[3]; [16],4777 ± 82.6 ng/mL
same,"stability, Accuracy (measured versus nominal concentration)",[3]; [17],94.76%
same,"stability, mean ± SD (measured concentration)",[3]; [17],4738 ± 174 ng/mL
same,"stability, Accuracy (measured versus nominal concentration)",[3]; [18],93.78%
same,"stability, mean ± SD (measured concentration)",[3]; [18],4689 ± 298 ng/mL
same,CL,[4],0.001 ± 0.001 L/h
same,CLz,[4],24 mL/day/kg
same,AUC(0-inf),[5],23700 ± 4990 ng·h/mL
same,AUC(0-t),[5],23000 ± 4720 ng·h/mL
same,Cmax,[5]; Cmax,5370 ± 590 ng/mL
same,half-life,[5]; t1/2,4.29 ± 1.37 h
